Data reported in patent US20190365927A1, “COMPOSITION FOR PHOTODYNAMIC THERAPY USING GENE EXPRESSING FLUORESCENT PROTEIN AND PHOTOSENSITIZER, AND PHOTODYNAMIC THERAPY METHOD USING SAME” (priority 2017, published 2019).

Experiments:
[1] = system: GFP+ and GFP− NCI-H460 cells; assay: In vitro fluorescence intensity measurement after blue light irradiation (FRET); format: cell-based, human; details: RB 0, 5, 10, 50 uM, blue laser light 473 nm, FIG. 15
Procedure: Fluorescent intensities of GFP− and GFP+ cells after blue light irradiation were measured in the presence or absence of RB. The specific experimental procedure is as follows.
1×10^6 cells of GFP− and GFP+ NCI-H460 cell lines as produced by the method described in the 1-1 were cultured in a 75 cm^2 cell culture dish containing RPMI-1640 medium supplemented with 10% FBS. After 12 hours, the culture medium of the cell line was replaced with RPMI-1640 medium without FBS. Then, RBs of various concentrations (0 uM, 5 uM, 10 uM, 50 uM) were added thereto. The culturing was done for 4 hours to accumulate RB in the cells. Then, the cells were obtained by centrifugation. Pellets of each cell group were suspended in 1 ml PBS. Then, the cell was irradiated with blue laser light (473 nm, radiation dose rate=80 mW/cm^2). The light-emission spectrum of each cell group was measured using a spectrofluorometer (JASCO Inc.). Measurements in each group were repeated 5 times. The FRET efficiency was calculated by the following equation: […]
F(DA): GFP fluorescence intensity in the presence of RB, and
F(D): GFP fluorescence intensity in the absence of RB.

[2] = system: eGFP+ and eGFP− H460 and B16F10 tumors; assay: Tumor-transplanted animal test (cFRET PDT); format: in vivo, mice
Procedure: B 16F10 and GFP-B16-F0 Melanoma cells were harvested using a cell lifter and were resuspended in serum-free DMEM. Approximately 2×10^6/100 μL of B16F10 and GFP-B16-F0 melanoma cells were subcutaneously injected into both sides of female C57BL/6 mice. After 10 to 15 days, mice were divided into 4 groups based on the mean tumor diameter when the mean tumor diameter reached a minimum of 0.3 cm. The mice were then randomly divided into 4 groups (n=5 per group). Control animals received 0.9% saline instead of chemical substance.
In the experimental group, RB ([…], 53 nM/mL) was intravenously administered thereto twice a week, and blue light (2 min) was irradiated to the tumor site in 4 hours after the injection. The mouse body weight and tumor volume were measured twice a week. Three weeks later, the mice were euthanized. Tumors were removed therefrom and fixed to 10% neutral buffered formalin. The next day, the image was captured. Similar experiments were performed on GFP+ and GFP-H460 cells. About 2×10^6/100 μL of cells were injected subcutaneously into both sides thereof.

[3] = Absorbance spectrum of the photosensitizer; format: physicochemical; details: FIG. 1A
Lgr5+ cells = assay: cFRET PDT of colon polyps in azoxymethane/DSS-treated GFP-Lgr5 mice; format: in vivo, mouse; details: FIG. 4E
Procedure: To generate sporadic tumors, azoxymethane (10 mg/kg) was intraperitoneally injected into wild-type mice or GFP-Lgr5 mice. In one week after injection, mice were given 2% DSS as drinking water for 7 days. The next 7 days, the mice were given water normally. This DSS application cycle was repeated three times. Mice were randomly divided into 4 groups (n=5 per group).
Another group of 5 mice as wild-type and GFP-Lgr5 mice was set to a group that was not chemically treated. RB was intravenously injected (50 nM/mL, 0.75 ml/kg) into the wild type and GFP-Lgr5 mice of each experimental group twice a week for 7 weeks. And, in 4 hours after the RB injection, blue light (2 min) irradiation was performed via an anal penetration.
Polyp growth was monitored by endoscopy via polyp diameter measurements. After anesthesia, the mice were placed on the stage for colonoscopy. […] Each image was captured by capturing the image from the recorded video file using frame-extraction software. The tumor size was measured from the images (width×height×2). The distance-dependent magnification of the colonoscopy was calculated by imaging using a ruler in the same field.
To compare tumor sizes before and after FR-PDT, well-isolated tumors were selected. The locomotion path used in […] was recorded in detail for each tumor. The tumor location is determined based on the structure of the surrounding tissue. […]

Structure (SMILES): O=C1OC2(c3cc(I)c(O)c(I)c3Oc3c2cc(I)c(O)c3I)c2c(Cl)c(Cl)c(Cl)c(Cl)c21 [RB, rose bengal]
- emission intensity at 508 nm (emission peak of GFP) [1]: decreases as the concentration of RB increases
- tumor growth ([2]; GFP+ B16F10 cells in mouse, 473 nm laser light, FIG. 3D, 3E): remarkable tumor inhibiting effect
- eGFP+ cells removed in grafted tumor ([2]; mixture of eGFP+ and eGFP− sublines of H460 and B16F10 grafted to mouse, after second round of 473 nm irradiation, FIG. 3B, 3C): ~80%
- maximum absorbance [3]: 549 nm
- shoulder absorbance spectrum [3]: 510 nm
- polyp growth (Lgr5+ cells; Lgr5-EGFP-IRES-creERT2 knock-in mice compared to wild-type mice, 473 nm laser, 4F): polyp growth was inhibited
- number of polyps (Lgr5+ cells; cFRET treatment): decreased
